As a reminder, the Ki is the dissociation constant of the complex between target and ligand, obtained from inhibition or displacement. Broadly, the inhibition is the percentage by which the read-out fell short of the control.

This note sets out measurements from patent US9120756B2, “Substituted phenylureas and phenylamides as vanilloid receptor ligands” (Gruenenthal GmbH, priority 2009, dated 2015).

Type in all cases: cell-based
Assay [1] addresses rat-species vanilloid receptor 1 (VR1/TRPV1) (Rattus norvegicus (Rat), UniProt O35433). In words: FLIPR Ca2+ influx assay on rat dorsal root ganglia cells, capsaicin stimulus (method I). The note with it: for Ki: capsaicin (Cap); for inhibition at 5 µM: read-out: Ki (rat) Cap: inhibition (as a percentage) @ 5 μM, capsaicin, inhibition determined at 5 μM. On the procedure:
The agonistic or antagonistic effect of the substances to be tested on the rat-species vanilloid receptor 1 (VR1/TRPV1) can be determined using the following assay. In this assay, the influx of Ca^2+ through the receptor channel is quantified with the aid of a Ca^2+-sensitive dye (type Fluo-4, Molecular Probes Europe BV, Leiden, the Netherlands) in a fluorescent imaging plate reader (FLIPR, Molecular Devices, Sunnyvale, USA).
Complete medium: 50 ml HAMS F12 nutrient mixture (Gibco Invitrogen GmbH, Karlsruhe, Germany) with
10% by volume of FCS (foetal calf serum, Gibco Invitrogen GmbH, Karlsruhe, Germany, heat-inactivated);
2 mM L-glutamine (Sigma, Munich, Germany);
1% by weight of AA solution (antibiotic/antimyotic solution, PAA, Pasching, Austria) and 25 ng/ml NGF medium (2.5 S, Gibco Invitrogen GmbH, Karlsruhe, Germany)
Cell culture plate: Poly-D-lysine-coated, black 96-well plates having a clear base (96-well black/clear plate, BD Biosciences, Heidelberg, Germany) are additionally coated with laminin (Gibco Invitrogen GmbH, Karlsruhe, Germany), the laminin being diluted with PBS (Ca—Mg-free PBS, Gibco Invitrogen GmbH, Karlsruhe, Germany) to a concentration of 100 μg/ml. Aliquots having a laminin concentration of 100 μg/ml are removed and stored at −20° C. The aliquots are diluted with PBS in a ratio of 1:10 to 10 μg/ml of laminin and respectively 50 μL of the solution are pipetted into a recess in the cell culture plate. The cell culture plates are incubated for at least two hours at 37° C., the excess solution is removed by suction and the recesses are each washed twice with PBS. The coated cell culture plates are stored with excess PBS which is not removed until just before the feeding of the cells.
The vertebral column is removed from decapitated rats and placed immediately into cold HBSS buffer (Hank's buffered saline solution, Gibco Invitrogen GmbH, Karlsruhe, Germany), i.e. buffer located in an ice bath, mixed with 1% by volume (percent by volume) of an AA solution (antibiotic/antimyotic solution, PAA, Pasching, Austria). The vertebral column is cut longitudinally and removed together with fasciae from the vertebral canal. Subsequently, the dorsal root ganglia (DRG) are removed and again stored in cold HBSS buffer mixed with 1% by volume of an AA solution. The DRG, from which all blood remnants and spinal nerves have been removed, are transferred in each case to 500 μL of cold type 2 collagenase (PAA, Pasching, Austria) and incubated for 35 minutes at 37° C. After the addition of 2.5% by volume of trypsin (PAA, Pasching, Austria), incubation is continued for 10 minutes at 37° C. After complete incubation, the enzyme solution is carefully pipetted off and 500 μL of complete medium are added to each of the remaining DRG. […] The contents of each Falcon tube are respectively filtered through a 70 μm Falcon filter element and centrifuged for 10 minutes at 1,200 rpm and RT. The resulting pellet is respectively taken up in 250 μL of complete medium and the cell count is determined.
The number of cells in the suspension is set to 3×10^5 per ml and 150 μL of this suspension are in each case introduced into a recess in the cell culture plates coated as described hereinbefore. […] Subsequently, the cells are loaded with 2 μM of Fluo-4 and 0.01% by volume of Pluronic F127 (Molecular Probes Europe BV, Leiden, the Netherlands) in HBSS buffer (Hank's buffered saline solution, Gibco Invitrogen GmbH, Karlsruhe, Germany) for 30 min at 37° C., washed 3 times with HBSS buffer and after further incubation for 15 minutes at RT used for Ca^2+ measurement in a FLIPR assay. The Ca^2+-dependent fluorescence is in this case measured before and after the addition of substances (λex=488 nm, λem=540 nm). Quantification is carried out by measuring the highest fluorescence intensity (FC, fluorescence counts) over time.
The FLIPR protocol consists of 2 substance additions.

Assay [2] addresses T1, hVR1 (Homo sapiens (Human), UniProt Q8NER1). In words: FLIPR Ca2+ influx assay on CHO K1 cells transfected with the VR1 gene, capsaicin stimulus (method II). Further details: key to Ki (human being) Cap: result in words (NE / AG): AG=agonist; pAG=partial agonist; NE=no effect. The note with it: for Ki: capsaicin (Cap), read-out: Ki (human being) [nM] Cap; for Ki (human being) Cap: result in words (NE / AG): capsaicin; for inhibition at 1 µM: CHO-K1, read-out: Ki (human being) inhibition (as a percentage) @ 1 μM, capsaicin, inhibition determined at 1 μM. The text has this: In the process, the Ca^2+ influx is quantified in the FLIPR assay with the aid of a Ca^2+-sensitive dye (type Fluo-4, Molecular Probes Europe BV, Leiden, the Netherlands) in a fluorescent imaging plate reader (FLIPR, Molecular Devices, Sunnyvale, USA), as described hereinafter.
The agonistic or antagonistic effect of the substances to be tested on the vanilloid receptor 1 (VR1) can also be determined using the following assay. In this assay, the influx of Ca^2+ through the channel is quantified with the aid of a Ca^2+-sensitive dye (type Fluo-4, Molecular Probes Europe BV, Leiden, the Netherlands) in a fluorescent imaging plate reader (FLIPR, Molecular Devices, Sunnyvale, USA).
Chinese hamster ovary cells (CHO K1 cells, European Collection of Cell Cultures (ECACC) United Kingdom) are stably transfected with the VR1 gene. For functional testing, these cells are plated out on poly-D-lysine-coated black 96-well plates having a clear base (BD Biosciences, Heidelberg, Germany) at a density of 25,000 cells/well. The cells are incubated overnight at 37° C. and 5% CO2 in a culture medium (Ham's F12 nutrient mixture, 10% by volume of FCS (foetal calf serum), 18 μg/ml of L-proline). The next day the cells are incubated with Fluo-4 (Fluo-4 2 μM, 0.01% by volume of Pluronic F127, Molecular Probes in HBSS (Hank's buffered saline solution), Gibco Invitrogen GmbH, Karlsruhe, Germany) for 30 minutes at 37° C. Subsequently, the plates are washed three times with HBSS buffer and after further incubation for 15 minutes at RT used for Ca^2+ measurement in a FLIPR assay. The Ca^2+-dependent fluorescence is measured before and after the addition of the substances to be tested (λex wavelength=488 nm, λem=540 nm). Quantification is carried out by measuring the highest fluorescence intensity (FC, fluorescence counts) over time.
The FLIPR protocol consists of 2 substance additions. First the compounds to be tested (10 μM) are pipetted onto the cells and the Ca^2+ influx is compared with the control (capsaicin 10 μM) (% activation based on the Ca^2+ signal after the addition of 10 μM of capsaicin). After 5 minutes' incubation, 100 nM of capsaicin are applied and the Ca^2+ influx is also determined.
Desensitising agonists and antagonists led to suppression of the Ca^2+ influx.
Starting from the percentage displacement caused by different concentrations of the compounds to be tested of general formula I, IC50 inhibitory concentrations which cause a 50-percent displacement of capsaicin were calculated. Ki values for the test substances were obtained by conversion by means of the Cheng-Prusoff equation (Cheng, Prusoff; Biochem. Pharmacol. 22, 3099-3108, 1973).

For assay [3], the target named is T1, hVR1. In words: FLIPR assay hVR1, after pH stimulus. Further details: key to IC50 (human being) hVR1 pH: result in words (NE / AG): AG=agonist; pAG=partial agonist; NE=no effect. As to conditions: for inhibition at 10 µM: read-out: IC50 (human being) hVR1 pH: inhibition (as a percentage) @ 10 μM, inhibition determined at 10 μM. How it is done:
In this assay, the influx of Ca^2+ through the channel is quantified with the aid of a Ca^2+-sensitive dye (type Fluo-4, Molecular Probes Europe BV, Leiden, the Netherlands) in a fluorescent imaging plate reader (FLIPR, Molecular Devices, Sunnyvale, USA). Chinese hamster ovary cells (CHO K1 cells, European Collection of Cell Cultures (ECACC) United Kingdom) are stably transfected with the VR1 gene. For functional testing, these cells are plated out on poly-D-lysine-coated black 96-well plates having a clear base (BD Biosciences, Heidelberg, Germany) at a density of 25,000 cells/well. […] Subsequently, the plates are washed three times with HBSS buffer and after further incubation for 15 minutes at RT used for Ca^2+ measurement in a FLIPR assay. […] Quantification is carried out by measuring the highest fluorescence intensity (FC, fluorescence counts) over time. The FLIPR protocol consists of 2 substance additions. […] Desensitising agonists and antagonists led to suppression of the Ca^2+ influx. […] Ki values for the test substances were obtained by conversion by means of the Cheng-Prusoff equation (Cheng, Prusoff; Biochem. Pharmacol. 22, 3099-3108, 1973).

Chain of rat-species vanilloid receptor 1 (VR1/TRPV1) (O35433 whole entry): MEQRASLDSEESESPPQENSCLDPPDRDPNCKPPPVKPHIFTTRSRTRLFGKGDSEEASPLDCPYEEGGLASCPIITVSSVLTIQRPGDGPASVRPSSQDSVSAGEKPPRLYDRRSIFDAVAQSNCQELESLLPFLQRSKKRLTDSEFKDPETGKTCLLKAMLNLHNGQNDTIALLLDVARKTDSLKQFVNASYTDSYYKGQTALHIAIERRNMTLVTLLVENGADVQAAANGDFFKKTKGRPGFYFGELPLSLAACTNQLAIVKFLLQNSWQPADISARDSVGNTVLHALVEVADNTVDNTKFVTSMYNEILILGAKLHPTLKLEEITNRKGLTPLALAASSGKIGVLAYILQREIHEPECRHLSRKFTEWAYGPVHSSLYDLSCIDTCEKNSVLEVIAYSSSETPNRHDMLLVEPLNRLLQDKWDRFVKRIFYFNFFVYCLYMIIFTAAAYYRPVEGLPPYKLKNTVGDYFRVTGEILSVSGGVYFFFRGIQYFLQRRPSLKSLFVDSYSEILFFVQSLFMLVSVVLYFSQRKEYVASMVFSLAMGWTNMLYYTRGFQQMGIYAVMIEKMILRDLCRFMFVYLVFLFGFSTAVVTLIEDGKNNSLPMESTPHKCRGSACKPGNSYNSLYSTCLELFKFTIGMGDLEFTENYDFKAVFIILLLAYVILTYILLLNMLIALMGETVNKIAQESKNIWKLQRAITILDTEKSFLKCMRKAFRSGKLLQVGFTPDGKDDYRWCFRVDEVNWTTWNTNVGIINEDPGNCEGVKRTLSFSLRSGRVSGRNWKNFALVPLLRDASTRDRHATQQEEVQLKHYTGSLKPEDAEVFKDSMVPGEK
T1 sequence (Q8NER1 whole entry): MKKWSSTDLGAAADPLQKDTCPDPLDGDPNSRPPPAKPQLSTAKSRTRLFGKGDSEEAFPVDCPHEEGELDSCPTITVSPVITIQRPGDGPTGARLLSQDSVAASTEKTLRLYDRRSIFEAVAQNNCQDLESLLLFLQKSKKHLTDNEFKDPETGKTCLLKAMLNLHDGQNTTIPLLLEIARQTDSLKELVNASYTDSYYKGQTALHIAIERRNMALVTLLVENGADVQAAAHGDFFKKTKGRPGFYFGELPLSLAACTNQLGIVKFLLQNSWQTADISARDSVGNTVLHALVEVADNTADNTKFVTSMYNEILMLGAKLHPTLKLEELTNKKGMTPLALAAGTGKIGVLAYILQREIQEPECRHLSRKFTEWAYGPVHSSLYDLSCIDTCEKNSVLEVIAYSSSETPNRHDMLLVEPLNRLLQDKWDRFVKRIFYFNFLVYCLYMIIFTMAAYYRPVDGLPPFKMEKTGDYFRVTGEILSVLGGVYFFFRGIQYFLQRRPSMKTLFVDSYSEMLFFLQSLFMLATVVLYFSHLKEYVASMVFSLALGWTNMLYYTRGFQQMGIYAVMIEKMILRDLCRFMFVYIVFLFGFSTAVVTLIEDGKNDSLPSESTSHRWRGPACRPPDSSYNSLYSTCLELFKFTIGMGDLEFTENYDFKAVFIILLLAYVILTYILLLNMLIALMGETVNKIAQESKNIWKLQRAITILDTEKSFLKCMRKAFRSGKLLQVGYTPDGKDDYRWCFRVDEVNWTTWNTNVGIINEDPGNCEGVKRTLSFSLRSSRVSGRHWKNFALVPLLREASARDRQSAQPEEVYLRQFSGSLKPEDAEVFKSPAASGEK

Turning to `CC(C(=O)NCc1cc(C(C)(C)C)nn1C1CCCCC1)c1ccc(NS(C)(=O)=O)c(F)c1` (stereo not drawn) [Example 7, N-((3-tert-butyl-1-cyclohexyl-1H-pyrazol-5-yl)methyl)-2-(3-fluoro-4-(methylsulphonamido)phenyl)propanamide], the Ki worked out at 0.35 nM in assay [1] and 21.6 nM at hVR1 [2]. The “IC50 (human being) hVR1 pH: result in words (NE / AG)” value (from here on “IC50 … (NE / AG)”) on hVR1 [3] is listed as “NE”.

With `C[C@H](C(=O)NCc1cc(C(C)(C)C)n[nH]1)c1ccc(NS(C)(=O)=O)c(F)c1` [Example 2, (S)-N-((3-tert-butyl-1H-pyrazol-5-yl)methyl)-2-(3-fluoro-4-(methylsulphonamido)phenyl)propanamide], the inhibition at 5 µM in assay [1] came out at 25%. The “Ki (human being) Cap: result in words (NE / AG)” value at hVR1 [2] was “NE”. On hVR1 [3], the “IC50 … (NE / AG)” value is “NE”.

`C[C@H](C(=O)NCc1cc(C(C)(C)C)nn1C)c1ccc(NS(C)(=O)=O)c(F)c1` [Example 4, (S)-N-((3-tert-butyl-1-methyl-1H-pyrazol-5-yl)methyl)-2-(3-fluoro-4-(methylsulphonamido)phenyl)propanamide]: the inhibition at 5 µM in assay [1] was found to be 20%; at hVR1 [2] (CHO-K1, read-out: Ki (human being) Cap column: inhibition (as a percentage) @ 5 μM, capsaicin, inhibition determined at 5 μM), 9%. Further, the “IC50 … (NE / AG)” value at hVR1 [3] is “NE”.

`Cc1ccc(/C=C/n2nc(C(C)(C)C)cc2CNC(=O)C(C)c2ccc(NS(C)(=O)=O)c(F)c2)cc1` (stereo not drawn) [Example 19, (E)-N-((3-tert-butyl-1-(4-methylstyryl)-1H-pyrazol-5-yl)methyl)-2-(3-fluoro-4-(methylsulphonamido)phenyl)propanamide] came in with a Ki in assay [1] of 819 nM. Also, the inhibition at 1 µM on hVR1 [2] is 44%. For the same molecule, the “IC50 … (NE / AG)” value on hVR1 [3] is recorded as “NE”.

The molecule `COc1ccc(-n2nc(C(C)(C)C)cc2CNC(=O)C(C)c2ccc(NS(C)(=O)=O)c(F)c2)cc1` (stereo not drawn) [Example 20, N-((3-tert-butyl-1-(4-methoxyphenyl)-1H-pyrazol-5-yl)methyl)-2-(3-fluoro-4-(methylsulphonamido)phenyl)propanamide] gave a Ki in assay [1] of 2830 nM. Besides, the inhibition at 1 µM at hVR1 [2] came out at 55%. For the same molecule, on hVR1 [3], the “IC50 … (NE / AG)” value was “NE”.

Consider `C[C@@H](C(=O)NCc1cc(C(F)(F)F)nn1-c1ccc(Cl)cc1)c1ccc(NS(C)(=O)=O)c(F)c1` [Example 22, (R)-N-((1-(4-chlorophenyl)-3-(trifluoromethyl)-1H-pyrazol-5-yl)methyl)-2-(3-fluoro-4-(methylsulphonamido)phenyl)propanamide], for which the results for the inhibitory constant (Ki) (in assay [1]; at hVR1 [2]) were 42.7 nM and 31.7 nM, respectively. The inhibition at 10 µM on hVR1 [3] was determined as 42%.

Consider `CCCCCCn1nc(C(C)(C)C)cc1CNC(=O)[C@@H](C)c1ccc(NS(C)(=O)=O)c(F)c1` [Example 6, (S)-N-((3-tert-butyl-1-hexyl-1H-pyrazol-5-yl)methyl)-2-(3-fluoro-4-(methylsulphonamido)phenyl)propanamide], for which the values for the Ki (in assay [1]; at hVR1 [2]) were 14.5 nM and 27.7 nM, respectively. Further, the inhibition at 10 µM at hVR1 [3] was 13%.

As to `C[C@H](C(=O)NCc1cc(C(C)(C)C)nn1-c1ccc(Cl)cc1)c1ccc(NS(C)(=O)=O)c(F)c1` [Example 15, (S)-N-((3-tert-butyl-1-(4-chlorophenyl)-1H-pyrazol-5-yl)methyl)-2-(3-fluoro-4-(methylsulphonamido)phenyl)propanamide], the inhibition constant Ki in assay [1] came out at 2.5 nM; at hVR1 [2], 2.1 nM. For the same molecule, the inhibition at 5 µM at hVR1 [3] (read-out: IC50 (human being) hVR1 pH column: inhibition (as a percentage) @ 5 μM, inhibition determined at 5 μM) turned out to be 14%.

`CC(C(=O)NCc1cc(C(C)(C)C)n[nH]1)c1ccc(NS(C)(=O)=O)c(F)c1` (stereo not drawn) [Example 1, N-((3-tert-butyl-1H-pyrazol-5-yl)methyl)-2-(3-fluoro-4-(methylsulphonamido)phenyl)propanamide]: the inhibition at 5 µM in assay [1] turned out to be 25%. For the same molecule, at hVR1 [2], the “Ki (human being) Cap: result in words (NE / AG)” value was “NE”. For the same molecule, the “IC50 … (NE / AG)” value on hVR1 [3] is given as “NE”.
